According to article PMC5613068, “Resolving distinct molecular origins for copper effects on PAI-1” (Journal of Biological Inorganic Chemistry, 2017):
Where two headings read alike, the source gives them in different places. Values belong to the compound of their own block, whether it stands above or below them.

Key:
[1] = Metal ion titration gel assay (copper sensitivity of PAI-1 latency, PAI-1/tPA complex densitometry); format: biochemical; details: 4 µM PAI-1, 30 min, 37 °C, 50 mM MOPS, 100 mM (NH4)2SO4 pH 7.4, total Cu(II) 5-1000 µM, non-equilibrium
Protocol: To determine the Cu(II) concentrations required to induce accelerated PAI-1 latency, we used a gel-based metal ion titration assay. Serial dilutions of CuSO4 were prepared, resulting in final Cu(II) concentrations ranging from 5 to 1000 μM. […] Incubation with metal was initiated by adding PAI-1 at a final concentration of 4 μM and maintaining the mixture at 37 °C in 50 mM MOPS, 100 mM (NH4)2SO4 pH 7.4 for 30 min. After the 30-min incubation, PAI-1 was mixed in a 1:1 ratio with single-chain tPA (Molecular Innovations). Three control samples (PAI-1, tPA, and PAI-1/tPA) were also tested in which copper is not included. Non-reducing SDS-PAGE dye was added to each sample, followed by boiling for 10 min prior to loading on the gel. The free/latent PAI-1, free tPA, and PAI-1/tPA complex in each sample were separated and visualized by SDS-PAGE electrophoresis in a 4–12% gradient gel (Invitrogen). Samples were subjected to electrophoresis at 150 V for 75 min. SDS-PAGE gels were stained with Coomassie blue dye overnight, followed by three destaining steps of 90 min in deionized water containing 30% methanol and 7.5% glacial acetic acid. Gel pictures were captured using a ChemiDoc XRS molecular imager (Biorad), and gel band densitometry of the PAI-1/tPA complex bands was performed using Imagelab (Biorad). […]

[2] = Isothermal titration calorimetry of Cu(II) binding to PAI-1; details: 10 °C; for Kd / K obs: one-site model; for Kd: K d = 1/K obs
Protocol: Isothermal titration calorimetry (ITC) was used to determine the thermodynamic parameters associated with Cu(II) interactions with PAI-1. Active and latent forms of wild-type and variants of PAI-1 were dialyzed into 100 mM MOPS, 250 mM (NH4)2SO4 at 10 °C for 2 h. Because of the relative instability of the H2AH3A variant of PAI-1, our studies on H2AH3A PAI-1 utilized a variant that contained an additional mutation, W175F. […] Residue 175 is not proximal to the N terminus and is not involved in metal ion coordination or its subsequent effects on PAI-1 stability. Copper solutions were prepared by diluting CuSO4 into the matched dialysate buffer. The copper stock concentration was verified using atomic absorbance spectroscopy, and the pH corrected to 7.4 at 10 °C using NaOH. Twenty micromolar PAI-1 (2.2 mL total volume) and copper solution (4 mL) were degassed under vacuum for 10 min at 5 °C prior to loading into the (Malvern) MicroCal VP-ITC. The PAI-1 solution was loaded into the ITC cell (1.394 mL), and the copper solution was loaded into the ITC syringe. The reference and experimental ITC cells were equilibrated to 10 °C prior to the start of the experiment. After a preliminary injection of 2 µL, each additional injection consisted of a 4 µL injection at 120 or 240 s intervals. Experiments were performed at least in duplicate. Control experiments measuring dilution heats were performed in which the copper solution was injected into buffer. The data were baseline corrected using NITPIC software (University of Texas, Southwestern), and fit to either a single-site or two-site non-symmetric binding model in SEDPHAT (National Institutes of Health). The data and fits were represented using GUSSI software (University of Texas, Southwestern).

tPA = tPA (Homo sapiens, UniProt P00750); assay: PAI-1 activity measurement (inhibition of tPA at varying molar ratios); format: biochemical; details: purified active protein
Protocol: The activity of wild-type and variant forms of PAI-1 was measured using standard assays. PAI-1 was mixed with tPA at varying molar ratios ranging from 0.25 to 4 (PAI-1:tPA). The inhibitory capacity of PAI-1 was measured in a gel-based assay, wherein the PAI-1/tPA complex at each molar ratio was monitored and quantified by densitometry. PAI-1 inhibition of proteases was also measured in a kinetic assay in which the tPA-substrate (Spectrozyme tPA, Sekisui Diagnostics) was added to the mixture containing PAI-1 and tPA. Cleavage of the p-nitroanaline group of Spectrozyme tPA was detected by absorbance at 405 nm, allowing for the measurement of tPA activity over time at each molar ratio of PAI-1:tPA. […] Latent PAI-1 was generated by dilution in buffer (50 mM sodium phosphate, 300 mM NaCl, 1 mM EDTA, pH 6.25) to a 5 μM concentration, and incubation at 37 °C with light stirring for 6 days. The aforementioned activity measurements were performed to confirm that no active PAI-1 remained in the mixture.

[3] = target: vitronectin (Homo sapiens) (UniProt P04004); details: cited from earlier work
[4] = target: vitronectin SMB domain (Homo sapiens) (UniProt P04004); details: cited from earlier work
PAI-1 [5] = target: PAI-1; set-up: method as in PMID 21280128; details: read-out: K d of copper binding to PAI-1; cited from earlier work
PAI-1 [6] = target: PAI-1; set-up: method as in PMID 12067733, PMID 10764685; details: read-out: K d of VN binding to PAI-1; cited from earlier work

Sequence of PAI-1 (from UniProt P05121) (P05121 24-402): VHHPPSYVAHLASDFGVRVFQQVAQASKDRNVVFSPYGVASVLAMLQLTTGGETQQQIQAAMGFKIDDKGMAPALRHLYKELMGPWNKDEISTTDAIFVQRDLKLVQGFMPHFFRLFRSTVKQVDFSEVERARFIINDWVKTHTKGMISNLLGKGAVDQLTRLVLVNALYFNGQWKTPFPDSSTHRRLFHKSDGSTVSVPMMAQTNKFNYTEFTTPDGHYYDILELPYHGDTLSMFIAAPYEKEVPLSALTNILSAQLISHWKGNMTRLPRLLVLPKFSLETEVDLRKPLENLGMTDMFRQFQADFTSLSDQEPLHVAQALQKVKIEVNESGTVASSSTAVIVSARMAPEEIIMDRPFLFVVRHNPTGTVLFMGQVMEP
Sequence of vitronectin SMB domain (Homo sapiens) (P04004 17-66): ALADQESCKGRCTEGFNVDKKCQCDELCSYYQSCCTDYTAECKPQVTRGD
Sequence of vitronectin (Homo sapiens) (P04004 399-478): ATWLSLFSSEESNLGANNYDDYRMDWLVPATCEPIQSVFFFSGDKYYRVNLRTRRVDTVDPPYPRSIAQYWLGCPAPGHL
Sequence of tPA (P00750 311-562 limits assumed): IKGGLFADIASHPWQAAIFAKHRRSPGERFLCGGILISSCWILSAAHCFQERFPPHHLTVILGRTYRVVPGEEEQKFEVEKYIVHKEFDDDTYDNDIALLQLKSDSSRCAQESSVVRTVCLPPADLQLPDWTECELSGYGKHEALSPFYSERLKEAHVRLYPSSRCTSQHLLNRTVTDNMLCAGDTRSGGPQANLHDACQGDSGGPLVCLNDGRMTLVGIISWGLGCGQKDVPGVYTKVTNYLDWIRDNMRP

- Kd ([2]; [Cu(II)] 650 µM): 13 nM
- Kd ([2]; [Cu(II)] 700 µM): 19 nM
- K obs ([2]; [Cu(II)] 750 µM): 4.8 (±5.5) × 10^7 M^−1
- Kd ([2]; [Cu(II)] 750 µM): 20 nM
- K obs ([2]; [Cu(II)] 800 µM): 4.1 (±2.8) × 10^7 M^−1
- Kd ([2]; [Cu(II)] 800 µM): 24 nM
- average K obs ([2]; single-site model, average of replicate data): 5.4e+07 M⁻¹
- molar equivalents of PAI-1 that fully inhibit tPA (tPA): 1.25 molar equivalents
Compound: plasminogen activator inhibitor-1 [Wild-type]
- Copper sensitivity (midpoint Cu(II) concentration at which 50% PAI-1/tPA complex is observed) [1]: 150 µM
- Copper sensitivity (midpoint Cu(II) concentration at which 50% PAI-1/tPA complex is observed) ([1]; listed as wild-type PAI-1): approximately 150 µM

Compound: PAI-1 (from UniProt P05121)
- Kd [3]: 0.1 nM
- Kd [4]: 1 nM

Compound: O=S(=O)([O-])[O-].[Cu+2] [Copper, CuSO4]
- Kd (PAI-1 [5]): ~90 nM

Compound: VN: Vitronectin, glycoprotein that binds and stabilizes active PAI-1
- Kd (PAI-1 [6]): ~0.1 nM
